pEC50: −log10 of the molar value.
What was measured:
[1] = test system: HRV-14; assay: Antirhinoviral H1-HeLa cell culture assay (XTT cell protection, EC50), HRV-14; assay type: cell-based, human rhinovirus (HRV) serotype-14 in H1-HeLa cells; details: Rhinovirus B, HRV14, H1-HeLa
Outline: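 H1-HeLa cells were infected with HRV-14 at m.o.i. 0.13, or mock-infected, and incubated with compound for two days. Cell protection was read by XTT/PMS formazan absorbance at 450/650 nm to give EC50. CC50 came from mock-infected cells, and TI = CC50/EC50.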

[2] = Cytotoxicity (CC50) in mock-infected H1-HeLa cells, XTT dye reduction; assay type: cell-based, human; details: human, H1-HeLa cells; for CC50: line of CVB2; for CC50 at 1 day: line of CVB3
Outline: (§1)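 H1-HeLa cells mock-infected, read by XTT/PMS formazan at 450/650 nm.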

[3] = test system: H1-HeLa cells; assay: as above; assay type: cell-based, human
Outline: as §1

[4] = test system: Echovirus type 11 (ECHO 11); assay: Anti-echoviral cell culture assay (XTT, EC50), ECHO 11; assay type: cell-based, echovirus 11 in MRC-5 cells; details: Enterovirus B
Description: Anti-Echoviral and Anti-Enteroviral Cell Culture Assays
Echovirus type 11 (ECHO 11) was purchased from ATCC (Rockville, Md.). Virus stocks were propagated and antiviral assays were performed in MRC-5 cells (ATCC). Cells were grown in minimal essential medium with 10% fetal bovine serum (Life Technologies, Gaithersburg, Md.). The ability of the compounds of this invention to protect cells against ECHO 11 infection was measured by the XTT dye reduction method (Weislow et al., J. Natl. Cancer Inst. (1989), vol. 81, 577-586). MRC-5 cells were infected with ECHO 11 at an m.o.i. of 0.003 or 0.004, respectively, or mock-infected with medium only. Infected or uninfected cells were added at 1×10^4 cells per well and incubated with appropriate concentrations of compound. Four days later, XTT/PMS was added to test plates, and the amount of formazan produced was quantified spectrophotometrically at 450/650 nm. […] The therapeutic index (TI) was calculated by dividing the CC50 by the EC50. Activity of the compounds against enterovirus type 70 (EV 70) may be measured by the same assay as described above in this section. Enterovirus type 70 (EV 70) may be obtained from the American Type Culture Collection ATCC (Rockville, Md.).

[5] = test system: MRC-5 cells; assay: Cytotoxicity (CC50) in uninfected MRC-5 cells, XTT dye reduction; assay type: cell-based, human
Outline: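 MRC-5 cells in MEM with 10% FBS, infected at m.o.i. 0.003 or 0.004 or mock-infected, seeded 1×10^4 cells/well with compound for four days. Protection and cytotoxicity read by XTT/PMS formazan at 450/650 nm. TI = CC50/EC50.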

[6] = test system: echovirus 6 (ECHO-6); assay: Anti-echoviral cell culture assay (EC50), ECHO-6; assay type: cell-based; details: Enterovirus B
[7] = uninfected (mock-infected), line of CAV-21

SMILES | pEC50 [1] | CC50 at 2 days ([2]; mock-infected, line of HRV-14) [µM] | CC50 at 2 days [2, 7] [µM] | CC50 ([2]; uninfected (mock-infected)) [µM] | CC50 at 1 day ([2]; uninfected (mock-infected)) [µM] | CC50 ([3]; line of CVB5) [µM] | CC50 ([3]; line of HRV-2) [µM] | CC50 ([3]; line of HRV-3) [µM] | CC50 ([3]; line of HRV-9) [µM] | CC50 ([3]; line of HRV-11) [µM] | CC50 ([3]; line of HRV-13) [µM] | CC50 ([3]; line of HRV-16) [µM] | CC50 ([3]; line of HRV-19) [µM] | CC50 ([3]; line of HRV-23) [µM] | CC50 ([3]; line of HRV-25) [µM] | CC50 ([3]; line of HRV-39) [µM] | CC50 ([3]; line of HRV-78) [µM] | CC50 ([3]; line of HRV-87) [µM] | CC50 ([3]; line of HRV-Hanks) [µM] | pEC50 [4] | also measured
CCOC(=O)/C=C/[C@H](C[C@@H]1CCNC1=O)NC(=O)[C@H](CC)n1cccc(NC(=O)c2cc(C)on2)c1=O [Compound 26, trans-(2′S,3″″S,4S)-4-(2′-{3″-[(5′″-Methylisoxazole-3′″-carbonyl)amino]-2″-oxo-2″H-pyridin-1″-yl}butyrylamino)-5-(2″″-oxopyrrolidin-3″″-yl)pent-2-enoic Acid Ethyl Ester] | 7.26 | > 10 | > 10 | > 10 | > 10 | > 10 | > 10 | > 10 | > 10 | > 10 | > 10 | > 10 | > 10 | > 10 | > 10 | > 10 | > 10 | > 10 | > 10 | 7.44 | CC50 ([3]; line of HRV-1A): > 10 µM; CC50 ([3]; line of HRV-10): > 10 µM; CC50 ([5]; line of ECHO-6): > 10 µM; CC50 ([5]; line of ECHO-9): > 10 µM; pEC50 [6]: 7.77
C#CC[C@@H](C(=O)N[C@H](/C=C/C(=O)OCC)C[C@@H]1CCNC1=O)n1cccc(NC(=O)c2cc(C)on2)c1=O [Compound 31, trans-(2′S,3″″S,4S)-4-(2′-{3″-[(5′″-Methyl-isoxazole-3′″-carbonyl)amino]-2″-oxo-2″H-pyridin-1″-yl}pent-4′-ynoyl-amino)-5-(2″″-oxopyrrolidin-3″″-yl)pent-2-enoic Acid Ethyl Ester] | 7.66 | > 10 | > 10 | > 10 | > 10 | > 10 | > 10 | > 10 | > 10 | > 10 | > 10 | > 10 | > 10 | > 10 | > 10 | > 10 | > 10 | > 10 | > 10 | 7.89 | CC50 ([3]; line of HRV-1A): > 10 µM; CC50 ([3]; line of HRV-10): > 10 µM; CC50 ([5]; line of ECHO-9): > 10 µM; CC50 ([5]; line of ECHO-11): > 10 µM; pEC50 [6]: 7.68
CCOC(=O)/C=C/[C@H](C[C@@H]1CCNC1=O)NC(=O)[C@H](Cc1ccc(F)c(F)c1)n1cccc(NC(=O)c2cc(C)on2)c1=O [Compound 33, trans-(2′S,3′″″S,4S)-4-(3′-(3″,4″-Difluorophenyl)-2′-{3′″-[(5″″-methylisoxazole-3″″-carbonyl)amino]-2′″-oxo-2′″H-pyridin-1′″-yl}propionylamino)-5-(2′″″-oxopyrrolidin-3′″″-yl)pent-2-enoic Acid Ethyl Ester] | 9.00 | > 10 | > 10 | > 10 | > 10 | > 10 | > 10 | > 10 | > 10 | > 10 | > 10 | > 10 | > 10 | > 10 | > 10 | > 10 | > 10 | > 10 | > 10 | 7.80 | CC50 ([5]; line of ECHO-6): > 10 µM; CC50 ([5]; line of ECHO-9): > 10 µM; pEC50 [6]: 7.82

From US6514997B2, “Antipicornaviral compounds and compositions, their pharmaceutical uses, and materials for their synthesis” (Agouron Pharmaceuticals, Inc., priority 1999, dated 2003)
